# In patent US10730870B2, “Compounds and methods for the enhanced degradation of targeted proteins” (Arvinas, Inc., priority 2015, dated 2020):
# Test system: BRD4
# Test: BRD4 c-myc ELISA assay in 22RV-1 cells
# Assay type: cell-based
# Settings: 18 hrs
# Procedure: 22RV-1 cells were seeded at 30,000 cells/well at a volume of 75 μL/well in RPMI +10% FBS media in 96-well plates and grown overnight at 37 C. Cells were dosed with compounds at 4× concentration diluted in 0.4% DMSO; compounds were serially diluted 1:3 for 8-point dose curve. 25 ul of compound was added to cells for a final concentration starting at 300 nM-0.3 nM in 0.1% DMSO and incubated for 18 hrs. Media was aspirated, cells washed 1× with PBS and aspirated. Cells were lysed in 50 ul RIPA buffer (50 mM Tris pH8, 150 mM NaCl, 1% Tx-100, 0.1% SDS, 0.5% sodium deoxycholate) supplemented with protease and phosphatase inhibitors. Plates were incubated on ice for 15 minutes then centrifuged at 4° C. for 10 min at 4000 rpm. Added 50 ul of cleared lysate from 96-well assay plate into 96-well c-myc ELISA plate (Novex, Life Technologies Catalog # KH02041). […] The rest of the assay was performed following the protocol from the c-myc ELISA kit. Data was analyzed and plotted using GraphPad Prism software.
row,Compound,cMyc Imax
1,Cc1ncsc1-c1ccc([C@H](C)NC(=O)[C@@H]2C[C@@H](O)CN2C(=O)[C@@H](C(C)C)n2cc(-c3ccnc(O[C@H]4C[C@H](NC(=O)C[C@@H]5N=C(c6ccc(Cl)cc6)c6c(sc(C)c6C)-n6c(C)nnc65)C4)c3)cn2)cc1,+++ (51%≤Imax≤70%)
2,Cc1ncsc1-c1ccc([C@H](C)NC(=O)[C@@H]2C[C@@H](O)CN2C(=O)[C@@H](n2cc(-c3ccnc(O[C@H]4C[C@@H](NC(=O)C[C@@H]5N=C(c6ccc(Cl)cc6)c6c(sc(C)c6C)-n6c(C)nnc65)C4)c3)cn2)C(C)(C)C)cc1,++++ (71%≤Imax)
3,Cc1ncsc1-c1ccc([C@H](C)NC(=O)[C@@H]2C[C@@H](O)CN2C(=O)[C@H](C(C)C)n2cc(-c3ccnc(O[C@H]4C[C@H](NC(=O)C[C@@H]5N=C(c6ccc(Cl)cc6)c6c(sc(C)c6C)-n6c(C)nnc65)C4)c3)cn2)cc1,++++ (71%≤Imax)
4,Cc1ncsc1-c1ccc(CNC(=O)[C@@H]2C[C@@H](O)CN2C(=O)[C@H](C(C)C)n2cc(-c3cccc(O[C@H](C)CNC(=O)C[C@@H]4N=C(c5ccc(Cl)cc5)c5c(sc(C)c5C)-n5c(C)nnc54)c3)cn2)cc1,++++ (71%≤Imax)
5,Cc1ncsc1-c1ccc([C@H](C)NC(=O)[C@@H]2C[C@@H](O)CN2C(=O)[C@H](C(C)C)n2cc(-c3ccnc(N4CC[C@H](NC(=O)C[C@@H]5N=C(c6ccc(Cl)cc6)c6c(sc(C)c6C)-n6c(C)nnc65)C4)c3)cn2)cc1,++++ (71%≤Imax)

# Biological target: His-tagged VHL protein (Homo sapiens (Human), UniProt P40337)
# Sequence (P40337 whole entry, looked up): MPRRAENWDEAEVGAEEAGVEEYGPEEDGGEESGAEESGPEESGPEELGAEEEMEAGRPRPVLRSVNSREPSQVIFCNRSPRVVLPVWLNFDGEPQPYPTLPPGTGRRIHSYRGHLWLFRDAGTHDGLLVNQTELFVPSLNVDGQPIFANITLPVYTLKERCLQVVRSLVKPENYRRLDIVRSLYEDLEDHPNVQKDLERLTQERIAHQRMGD
# Sequence (Q15370 whole entry partner, looked up): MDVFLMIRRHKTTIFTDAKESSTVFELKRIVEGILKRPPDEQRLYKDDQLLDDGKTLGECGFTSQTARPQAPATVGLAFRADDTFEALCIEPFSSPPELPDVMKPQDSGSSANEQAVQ
# Sequence (Q15369 whole entry partner, looked up): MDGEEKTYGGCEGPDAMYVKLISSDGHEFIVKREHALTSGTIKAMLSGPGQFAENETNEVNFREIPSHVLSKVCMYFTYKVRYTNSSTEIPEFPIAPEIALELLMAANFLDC
# Test: Surface plasmon resonance (SPR) assay
# Assay type: binding
# Settings: average of at least N=2, 1:1 fitting
# Procedure: The surface plasmon resonance (SPR) experiments were conducted on a Biacore3000 (GE Healthcare). His-tagged VHL protein was immobilized on a carboxymethylated dextran surface with nitriloacetic acid (NTA), taking advantage of NTA/Ni^2+ chelation. The prepared surface was allowed to equilibrate over three hours in running buffer (Ambion 1×PBS buffer @ pH 7/4, 0.005% Tween, 2% DMSO).
# All compounds were prepared in 100% DMSO stock plates with a top concentration of 5 mM in a 3× serial dilution. Compounds were transferred from the stock plate to the assay plate and diluted into running buffer containing no DMSO. All compounds were run as a six-concentration series with a final assay top concentration of 100 uM. Data analysis was performed in Scrubber 2 (BioLogic software, Campbell, Australia). Blanks were subtracted and data was corrected for DMSO using a standard DMSO curve.
# Table 2 illustrates VHL inhibition data (i.e., Kd, μM) of examples contained herein in a surface plasmon resonance (SPR) assay.
row,Kd,Compound
1,0.33 µM,"Cc1cc([C@H](C(=O)N2C[C@H](O)C[C@H]2C(=O)N[C@@H](C)c2ccc(-c3scnc3C)cc2)C(C)C)on1 [Example 205, (2S,4R)-4-hydroxy-N-[(1S)-1-[4-(4-methyl-1,3-thiazol-5-yl)phenyl]ethyl]-1-[(2R)-3-methyl-2-(3-methyl-1,2-oxazol-5-yl)butanoyl]pyrrolidine-2-carboxamide]"
2,0.24 µM,"CC[C@H](NC(=O)[C@@H]1C[C@@H](O)CN1C(=O)[C@@H](c1cc(C)no1)C(C)C)c1ccc(-c2scnc2C)cc1 [Example 207, (2S,4R)-4-hydroxy-N-[(1S)-1-[4-(4-methyl-1,3-thiazol-5-yl)phenyl]propyl]-1-[(2R)-3-methyl-2-(3-methyl-1,2-oxazol-5-yl)butanoyl]pyrrolidine-2-carboxamide]"

# Test system: LNCap and VCaP cells
# Test: Apoptosis, cell death and anti-proliferation in LNCaP and VCaP cell systems
# Assay type: cell-based
# Settings: increasing concentrations of AR agonist R1881 and cells containing the AR F876L mutation
row,Compound,anti-proliferative activity
1,CNC(=O)c1ccc(N2C(=S)N(c3ccc(C#N)c(C(F)(F)F)c3)C(=O)C2(C)C)cc1F [enzalutamide],inactive

# Test system: Androgen Receptor
# Test: Androgen receptor ELISA assay (AR degradation) in LNCaP and/or VCaP cells
# Assay type: cell-based
# Settings: AR PROTACs
# Procedure: Compounds have been evaluated in this assay in LNCaP and/or VCaP cells utilizing similar protocols. The protocols used with VCaP cells are described below. The androgen receptor ELISA assay was performed using PathScan AR ELISA (Cell Signaling Catalog #12850) according to the following assay steps:
# VCaP cells are seeded at 30,000 cells/well at a volume of 200 μL/well in VCaP assay medium [Phenol red free RPMI (Gibco Cat #11835-030); 5% Charcoal Stripped (Dextran treated) FBS (Omega Scientific, Cat # FB-04); Pen/Strep Life Technologies (Gibco Cat #: 10378-016); 0.1 nM R1881 (Sigma, Cat # R0908) is added upon the start of the assay, not during initial plating of the cells) in Corning 3904 plates. The cells are grown for a minimum of 3 days.
# (2)(i) Make 10× stock plate in media; (ii) transfer 2.5 μL of the 1000× stock to a new 10× stock plate (use 12 channel pipet, start at A (DMSO control) work thru H. When 247.5 μL of media is added to this plate, it will serve as a 10× stock; (iii) make media+1 nM R1881 for making 10× stock plate; (iv) add 247.5 μL of media with 1 nM R1881 to each well of the 10× stock plate, mix.
# Then 22 μL of 10× stock is added to cells and incubated for 24h. 1× Cell Signaling Cell lysis buffer is made (Catalogue #9803; comes with the kit)—prepare for 50 μL/well. Keep on ice. Media is aspirated, and 50 μL 1× cell lysis buffer/well is added. The cells are placed on ice for 10 minutes. The solution is mixed and transferred to PCR plate, and centrifuged at 4 C for 10 minutes at 4000 rpm.
# 5 μL is transferred to fresh plate (use immediately or freeze −80 C); 115 μL ELISA Dilutant is added (0.15 ug/ml-0.075 ug/ml; comes with the PathScan ELISA).
# Add 100 μL/well AR Elisa; cover and shake, 37 C for 2 hrs; dump, tap, wash 4×200 μL ELISA wash buffer; add 100 μL/well mouse AR detection Ab; cover and shake, 37 C for 1 hr; dump, tap, wash 4×200 μL ELISA wash buffer; add 100 μL/well anti-mouse—HRP conjugated Ab (comes with the kit); cover and shake, 37 C for 30 min; allow TMB reagent to come to RT; dump, tap, wash 4×200 μL Elisa wash buffer; tap; add 100 μL TMB, shake 5 min—while watching color. Add the stop reagent when light blue color develops. Add 100 μL Stop solution; shake and read at 450 nm.
# The results presented in Table 3 were generated using the androgen receptor ELISA Assay described above, where compound potencies were characterized in highest percentage of Androgen Receptor degradation (Dmax) observed.
row,Compound,Dmax (highest percentage of Androgen Receptor degradation)
1,Cc1ncsc1-c1ccc(CNC(=O)[C@@H]2C[C@@H](O)CN2C(=O)C(C(C)C)n2cc(OC3CCN(c4ccc(-c5ccc(N6C(=S)N(c7ccc(C#N)c(C(F)(F)F)c7)C(=O)C6(C)C)cc5)cn4)CC3)cn2)cc1 (stereo partly drawn),++ (26%≤Dmax≤50%)
2,Cc1ncsc1-c1ccc([C@H](C)NC(=O)[C@@H]2C[C@@H](O)CN2C(=O)[C@H](C(C)C)n2cc(-c3ccnc(OC4CN(c5ncc(C(=O)NC6C(C)(C)C(Oc7ccc(C#N)c(Cl)c7)C6(C)C)cn5)C4)c3)cn2)cc1 (stereo partly drawn),+++ (51%≤Dmax≤70%)
3,Cc1ncsc1-c1ccc([C@H](C)NC(=O)[C@@H]2C[C@@H](O)CN2C(=O)[C@H](C(C)C)n2cc(-c3ccnc(N4CCC(Nc5ccc(C(=O)N[C@H]6C(C)(C)[C@H](Oc7ccc(C#N)c(Cl)c7)C6(C)C)cc5)C4)c3)cn2)cc1 (stereo partly drawn),++ (26%≤Dmax≤50%)
4,Cc1ncsc1-c1ccc([C@H](C)NC(=O)[C@@H]2C[C@@H](O)CN2C(=O)[C@H](C(C)C)n2cc(-c3ccnc(OC4CN(c5ccc(C(=O)N[C@H]6C(C)(C)[C@H](Oc7ccc(C#N)c(Cl)c7)C6(C)C)cn5)C4)c3)cn2)cc1,+++ (51%≤Dmax≤70%)
